Legend:
apoA1 mRNA [1] = conditions: HepG2 cells; Haghpassand et al. 1995; cited from earlier work
apoA1 mRNA [2] = experiment: apoA1 mRNA by RT-qPCR in transfected HepG2 cells; type: cell-based, human; conditions: for apoA1 mRNA levels: individual NRIP1 Dicer substrate dsiRNA duplexes (FIG. 8)
Source text: Pools of siRNAs that were targeted to NRIP1 (#27) and 32 other transcription modulators were transfected into cultured HepG2 cell along with experimental controls apoA1 siRNA (siApoA1), siRNA non-targeting control (siNT) and transfection media without siRNA (HepG2). […] Each siRNA was designed and synthesized by Dharmacon to interact in a sequence specific manner with the target mRNA and suppress gene expression. For NRIP1, the following siRNA duplexes were used based on the NRIP1 sequence found under GenBank Accession no. NM_173440.
Cultured human hepatoma cell line HepG2 cells were seeded in 6-well plates at a density of 4E5 (i.e., 4×10^5) cells/well in antibiotic free 10% FBS/MEME and cultured for 16 hours. siRNA (20 μM) was prepared by diluting to 2 μM with buffer. To that, equal amounts Opti-MEM medium was added, mixed and kept at room temperature (RT) for 5 minutes. Transfection lipid was prepared using DharmaFECT 4 transfection reagent X25 times diluted with Opti-MEM medium (4 μL/100 medium), mixed and kept at RT for 5 minutes. siRNA and transfection lipid were complexed by mixing equal volumes and incubated for 20 minutes at RT. […]
Forty-eight hours post transfection, medium was removed from transfected HepG2 culture and assessed for secreted apoA1 levels using a human apoA1 sandwich ELISA (MabTech) as described by the manufacturer. […]
HepG2 cells were transfected with varying concentrations of pooled NRIP1 siRNA as described in Example 1, except that 24 hours post transfection 10 μM 9 cis-retinoic acid was added to the growth medium. Cells were harvested 24 hours later and apoA1 and NRIP1 mRNA levels measured as previously described. […]
HepG2 cells were transfected with four individual NRIP1 siRNA duplexes at a concentration of 100 nM or a pool of all four siRNAs at a final concentration 100 nM following the protocol previously described. […] In FIG. 6, expression levels of NRIP1 gene expression were similarly evaluated. […]

NRIP1 target mRNA = experiment: NRIP1 mRNA by RT-qPCR in transfected HepG2 cells; type: cell-based, human; conditions: for NRIP1 gene expression (suppression): individual siRNA duplexes 100 nM, vs siNT and lipid controls (FIG. 6); for NRIP1 target gene expression, dose response: 4-fold dilutions from 100 nM to 1.56 nM (FIG. 7)
Procedure: Cultured human hepatoma cell line HepG2 cells were seeded in 6-well plates at a density of 4E5 (i.e., 4×10^5) cells/well in antibiotic free 10% FBS/MEME and cultured for 16 hours. siRNA (20 μM) was prepared by diluting to 2 μM with buffer. To that, equal amounts Opti-MEM medium was added, mixed and kept at room temperature (RT) for 5 minutes. Transfection lipid was prepared using DharmaFECT 4 transfection reagent X25 times diluted with Opti-MEM medium (4 μL/100 medium), mixed and kept at RT for 5 minutes. siRNA and transfection lipid were complexed by mixing equal volumes and incubated for 20 minutes at RT. Cultured HepG2 cells in 6-sell plates were changed into fresh antibiotic free 10% FBS/MEME (1.6 mL/well) and 400 complexed siRNA was added to each well to a final concentration of 100 nM and incubated for 48 hrs.
HepG2 cells were transfected with varying concentrations of pooled NRIP1 siRNA as described in Example 1, except that 24 hours post transfection 10 μM 9 cis-retinoic acid was added to the growth medium. Cells were harvested 24 hours later and apoA1 and NRIP1 mRNA levels measured as previously described. RT-qPCR was performed as described (Zhu et al., Analytical Biochemistry 345:102-109 (2005)) using the following NRIP1 specific primer/probes:
HepG2 cells were transfected with four individual NRIP1 siRNA duplexes at a concentration of 100 nM or a pool of all four siRNAs at a final concentration 100 nM following the protocol previously described. Following isolation of total RNA, RT-qPCR was performed for apoA1 and NRIP1 gene expression. FIG. 5 compared apoA1 mRNA gene expression for siRNA samples to the siNT and lipid controls. In FIG. 6, expression levels of NRIP1 gene expression were similarly evaluated.
The differential effectiveness of individual sequence specific RNAi molecules to inhibit gene expression is well documented (Soutschek et al., Nature 432: 173-178 (2004)). […] The NRIP1 siRNA #5 and #8 were compare using 4-fold dilutions from 100 nM to 1.56 nM.

Row | Molecule | apoA1 mRNA levels (apoA1 mRNA [2]) | NRIP1 gene expression (suppression) (NRIP1 target mRNA) | NRIP1 target gene expression, dose response (NRIP1 target mRNA) | further results
1 | CC1=C(/C=C/C(C)=C\C=C\C(C)=C\C(=O)O)C(C)(C)CCC1 [9CRA, 9-cis retinoic acid] | – | – | – | endogenous apoA1 gene expression (apoA1 mRNA [1]): stimulates
2 | dsi#27-1: NRIP1 Dicer substrate RNAi duplex (IDT): sense 5′-AGACUAUACCUAAGCCAAUGAAUGG, antisense 5′-CCAUUCAUUGGCUUAGGAUAGUCUGG | elevated | – | – | –
3 | dsi#27-2: NRIP1 Dicer substrate RNAi duplex (IDT): sense 5′-AGGAGUCACAGAAAUAAUGAAAUGG, antisense 5′-CCAUUUCAUUAUUUCUGUGACUCCUGU | elevated | – | – | –
4 | oligo #7: NRIP1 siRNA duplex: sense GGACUGGAAUGCAGCAAAGUU (SEQ ID NO: 14), antisense 5′P-CUUUGCUGCAUUCCAGUCCUU (SEQ ID NO: 15) (5' phosphate on antisense, further chemistry not given here) | – | least effective | – | apoA1 mRNA gene expression (induction) (apoA1 mRNA [2]; individual siRNA duplexes 100 nM, vs siNT and lipid controls (FIG. 5)): least effective
5 | siRNA #5: NRIP1 siRNA duplex: sense GAAGCGUGCUAACGAUAAAUU (SEQ ID NO: 7), antisense 5′P-UUUAUCGUUAGCACGCUUCUU (SEQ ID NO: 12) (5' phosphate on antisense strand, further chemistry not given here) | – | most effective | inhibited better by siRNA #8 over siRNA #5 | –
6 | siRNA #8: NRIP1 siRNA duplex: sense AUACGAAUCUUCCUGAUGUUU (SEQ ID NO: 9), antisense 5′P-ACAUCAGGAAGAUUCGUAUUU (SEQ ID NO: 16) (5' phosphate on antisense strand, further chemistry not given here) | – | most effective | inhibited better | –

Reference: patent US8257921B1, “NRIP1 regulation of apolipoprotein A1” (Schering Corporation, priority 2008, dated 2012)
